The METLIN SMRT retention time set (Domingo-Almenara et al. 2019)

Experiment: gradient 5% acetonitrile 3 min, to 50% in 2 min, to 85% in 15 min, held 3 min, 100 µL/min
Conditions: column: Zorbax Extend-C18 2.1 x 50 mm; eluents: water / acetonitrile, 0.1% formic acid
How it was run: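 Values are retention times taken from adduct peaks that software picked and an analyst inspected. The pure standards were run as mixtures of ~100 molecules on HPLC linked to a quadrupole time-of-flight mass spectrometer, in positive and negative ionization mode. A Zorbax Extend-C18 column (2.1 × 50 mm, 1.8 μm) was used at 100 μL/min with water and acetonitrile, each including 0.1% formic acid.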

## Cc1cccc(OCc2nc(-c3ccc4oc(C)nc4c3)no2)c1
  RP-LC retention time: 1180 s

## CCCNC(=O)C1Cc2cc(S(=O)(=O)N3CCCCCC3)ccc2N1C(C)=O (centres undefined)
  RP-LC retention time: 744 s

## CCN1C(=O)C2CC3(CCN(C(=O)c4cccs4)CC3)CN2C1=O (centres undefined)
  RP-LC retention time: 701 s

## CCc1ccc(-n2nc(C)c3c(C(F)(F)F)cc(OCC(=O)NCc4ccco4)nc32)cc1
  RP-LC retention time: 1300 s

## Cn1cc(S(=O)(=O)N2CCCCC2)cc1C(=O)N1CCN(c2cccc(Cl)c2)CC1
  RP-LC retention time: 1050 s

## Fc1ccc(-c2nc(-c3ccc(-n4ccnc4)nc3)no2)cc1
  RP-LC retention time: 732 s

## O=C(Nc1ccc(Cl)cc1)C1CCCN(S(=O)(=O)c2c[nH]c(C(=O)N3CCCC3)c2)C1 (centres undefined)
  RP-LC retention time: 862 s

## COc1cc(Nc2nc3ccccc3nc2NS(=O)(=O)c2ccc(NC(=O)c3ccc(C)c(OC)c3)cc2)cc(OC)c1
  RP-LC retention time: 1240 s

## COCCn1cc(CCNC(=O)Nc2cc(F)c(F)c(F)c2)c2cccnc21
  RP-LC retention time: 800 s

## CSc1nnc(NC(=O)c2ccccc2Br)s1
  RP-LC retention time: 737 s

## CCc1noc(-c2cnc3nc(C)ccc3c2NCc2ccc(OC)cc2OC)n1
  RP-LC retention time: 752 s

## COc1ccc(-n2c(=O)n(C)c(=O)c3cc(C(=O)NCc4ccccn4)cnc32)cc1
  RP-LC retention time: 600 s

## Cc1nc(S(=O)(=O)N2CCC(C(=O)N3CCN(c4ccccc4F)CC3)CC2)cn1C
  RP-LC retention time: 719 s

## CC(=O)NCc1ccc(-c2noc(-c3ccc(Br)cc3)n2)s1
  RP-LC retention time: 938 s

## Cc1cc(-c2nc(-c3ccc(F)cc3)no2)c(C)n1CC(=O)N1CCCC(C)C1 (centres undefined)
  RP-LC retention time: 1180 s

## CN(C1CCc2nn(C)c(=O)n2CC1)S(=O)(=O)c1ccccc1Cl (centres undefined)
  RP-LC retention time: 865 s

## CN(C)C(=O)c1csc(S(=O)(=O)N2CCC(C(=O)NC3CCCCCCC3)CC2)c1
  RP-LC retention time: 835 s

## CCOC(=O)c1ccc(N2C=C(C(=O)N3CCCC3)S(=O)(=O)c3ccccc32)cc1
  RP-LC retention time: 813 s

## O=C(Nc1nc(-c2ccccc2)cs1)C(=O)c1c[nH]c2ccccc12
  RP-LC retention time: 1070 s

## Cc1ccc(-c2ccc(-n3nc(C)c(S(=O)(=O)Nc4ccc5c(c4)OCCO5)c3C)nn2)cc1C
  RP-LC retention time: 1100 s

## COc1ccc(Cl)cc1NC(=O)c1cnc2sccn2c1=O
  RP-LC retention time: 839 s

## Cc1nc2nc(-c3ccc(C(C)(C)C)cc3)nn2c(C)c1CC(=O)N1CCN(CCO)CC1
  RP-LC retention time: 657 s

## CCc1ccc(NC(=O)Cn2nc3nc(N4CCCC4)ccn3c2=O)cc1
  RP-LC retention time: 678 s

## COc1ccc(C2Cn3nnc(C(=O)N4CCC(C(=O)NC5CC5)CC4)c3CO2)cc1 (centres undefined)
  RP-LC retention time: 699 s

## CSc1cccc(NC(=O)CSc2ccc(N3CCCC(C(=O)NC4CC4)C3)nn2)c1 (centres undefined)
  RP-LC retention time: 682 s

## CN1CCCn2nc(C3CCN(S(=O)(=O)c4ccc5c(c4)OCCO5)CC3)cc2C1=O
  RP-LC retention time: 718 s

## COc1ccc(OCc2noc(CNC(=O)CSc3nc4ccccc4s3)n2)cc1
  RP-LC retention time: 855 s

## CCOC(=O)c1cccc(NC(=O)C2CCN(C(=O)C3Sc4ccccc4NC3=O)CC2)c1 (centres undefined)
  RP-LC retention time: 812 s

## CCn1ccc(C(=O)N2CCCN(C3=NS(=O)(=O)C(c4ccc(F)cc4)=C3C)CC2)n1
  RP-LC retention time: 759 s

## O=C(Nc1cnccn1)c1ccc(S(=O)(=O)N2CCCCCC2)cc1
  RP-LC retention time: 766 s

## CC(C)n1cnc(S(=O)(=O)N2CCC(C(=O)Nc3ccc(OC(F)(F)F)cc3)CC2)c1
  RP-LC retention time: 888 s

## Cc1cc(NC(=O)CSc2nnc(-c3c(C)nc4sccn34)n2C)no1
  RP-LC retention time: 588 s

## CCCN(CC1CCOC1)C(=O)Nc1ccc(C(F)(F)F)cc1 (centres undefined)
  RP-LC retention time: 908 s

## CCOC(=O)c1c(C)[nH]c(C(=O)N2CCC(CC(=O)NC3CCCC3)CC2)c1C
  RP-LC retention time: 720 s

## CC(C)NC(=O)N1CCCC(c2cccc(C(=O)NCc3cccc(C(F)(F)F)c3)c2)C1 (centres undefined)
  RP-LC retention time: 958 s

## COc1ccc(CNC(=O)Cn2nc3c4ccccc4ncn3c2=O)cc1
  RP-LC retention time: 651 s

## CCOC(=O)c1cc(S(=O)(=O)N2CCCC2C(=O)NC(C)C)cn1C (centres undefined)
  RP-LC retention time: 746 s

## O=C(NCc1csc(-c2ccccc2)n1)C1CCCN(c2ccc(-c3ccco3)nn2)C1 (centres undefined)
  RP-LC retention time: 641 s

## O=C(c1nc(-c2cnccn2)no1)N1CCc2ccccc21
  RP-LC retention time: 740 s

## COc1cccc(C(O)CN2CCN(c3ccccc3)CC2)c1 (centres undefined)
  RP-LC retention time: 634 s

## COc1ccc(Cl)cc1NC(=O)NC1CCN(c2ccccc2)C1=O (centres undefined)
  RP-LC retention time: 873 s

## CCOc1ccc(NC(=O)c2cn(-c3cc(N4CCCCC4C)ncn3)cn2)cc1 (centres undefined)
  RP-LC retention time: 1110 s

## O=c1ccc(S(=O)(=O)N2CCCCCC2)cn1Cc1ccccc1F
  RP-LC retention time: 936 s

## CC(C)c1noc(-c2cc(=O)n(CC(=O)Nc3ccc(F)cc3F)c3ccccc23)n1
  RP-LC retention time: 1020 s

## Cc1ccc(-c2nc(-c3ccc4c(c3)ncn4CCN3CCCC3)no2)s1
  RP-LC retention time: 639 s

## COc1cc(Cl)c(NS(=O)(=O)c2cc(-c3cc(C(F)(F)F)[nH]n3)sc2C)c(OC)c1
  RP-LC retention time: 1030 s

## O=C(Cn1cnc2nc(N3CCC(C(=O)NC4CC4)CC3)sc2c1=O)NC1CCc2ccccc21 (centres undefined)
  RP-LC retention time: 670 s

## CCCN(C(C)=O)c1nc(-c2ccc(C)cc2)cs1
  RP-LC retention time: 1190 s

## Cc1c(C(=O)N2CCC(C)CC2)cnn1-c1cc(-c2nc(C(C)(C)C)no2)ccn1
  RP-LC retention time: 1240 s

## CCn1ccc(NC(=O)Nc2cc(C)cc(C)c2)n1
  RP-LC retention time: 853 s

## CC(=O)Nc1ccc(SCC(=O)N(C(C)C)C(C)C)nn1
  RP-LC retention time: 675 s

## CC(C)(C)C(O)CCNC(=O)Nc1ccc2c(c1)OCO2 (centres undefined)
  RP-LC retention time: 690 s

## CC1CCN(C(=O)c2ccc3ncnc(N4CCCCC4)c3c2)CC1
  RP-LC retention time: 638 s

## CCC(C)NS(=O)(=O)c1cc(-c2nnc(-c3ccc(OC)c(OC)c3)o2)ccc1C (centres undefined)
  RP-LC retention time: 938 s

## Cc1cc(C)cc(NC(=O)Cn2c(C)cc(-c3nnc(C)o3)c2C)c1
  RP-LC retention time: 843 s

## Cc1nc(-c2ccccc2)sc1C(=O)Nc1nc(-c2ccccc2Cl)cs1
  RP-LC retention time: 1310 s

## O=C(Cn1c(-c2cccs2)cc2cc(Cl)ccc21)NCCN1CCOCC1
  RP-LC retention time: 706 s

## COc1ccc(N2CC(c3noc(-c4ccc(C(C)(C)C)cc4)n3)CC2=O)cc1 (centres undefined)
  RP-LC retention time: 1200 s

## CCn1nccc1C(=O)NC(C)(C)c1nc2c(c(C(N)=O)n1)OCO2
  RP-LC retention time: 614 s

## Cc1cc(C)cc(-c2nc(C3CC(=O)N(c4ccc(Cl)cc4)C3)no2)c1 (centres undefined)
  RP-LC retention time: 1200 s

## Cc1ccn2cc(C(=O)NCc3cccs3)nc2c1
  RP-LC retention time: 591 s

## O=C(NCc1cccs1)c1nc2ccccn2c1-c1ccsc1
  RP-LC retention time: 830 s

## CCOC(=O)C1=C(CN2CCN(c3ccccn3)CC2)NC(=O)NC1c1ccc(F)cc1 (centres undefined)
  RP-LC retention time: 625 s

## Cc1ccc(-c2csc(Nc3ccc(Br)cn3)n2)c(C)c1
  RP-LC retention time: 1330 s

## Cc1ccc(NC(=O)C2CCN(S(=O)(=O)c3ccc4c(c3)sc(=O)n4C)CC2)cc1F
  RP-LC retention time: 933 s

## COc1ccc(C(=O)C(C)OC(=O)C(C)N2C(=O)c3ccccc3C2=O)cc1 (centres undefined)
  RP-LC retention time: 913 s

## c1ccc(N2CCN(CCCOc3ccc4c(c3)OCO4)CC2)cc1
  RP-LC retention time: 770 s

## Cc1[nH]nc(-c2c(C)sc(C)c2S(=O)(=O)NCCCc2ccccc2)c1C
  RP-LC retention time: 1130 s

## Cc1ccc(N2CCC(NC(=O)NCc3ccc(F)cc3)C2=O)cc1C (centres undefined)
  RP-LC retention time: 874 s

## CCOc1cc(=O)n2c(c1C(=O)NC1CCCC1)CCCCC2
  RP-LC retention time: 671 s

## Cc1ccccc1-c1noc(-c2cccnc2N2CCN(c3ccccc3)CC2)n1
  RP-LC retention time: 1410 s

## COc1cc(=O)n2c(c1C(=O)NC1CCCCCCC1)CCCC2
  RP-LC retention time: 734 s

## CCc1ccc(NC(=O)Cn2nc(N3CCCC(C)C3)c3ccccc3c2=O)cc1 (centres undefined)
  RP-LC retention time: 1160 s

## Cn1nccc1C(=O)Nc1ccsc1-c1nc(-c2ccc(F)cc2)no1
  RP-LC retention time: 1260 s

## CCc1ccc(N2CC(c3noc(-c4ccc(Cl)cc4)n3)CC2=O)cc1 (centres undefined)
  RP-LC retention time: 1200 s

## O=C([C@H]1C[C@@H](F)CN1S(=O)(=O)c1ccc(C(F)(F)F)cc1)N1CCOCC1
  RP-LC retention time: 738 s

## O=C(CC(c1ccccc1)c1ccccc1)NCCCn1ncccc1=O
  RP-LC retention time: 702 s

## Cc1c(Cl)cccc1NC(=O)NCCc1cn(CC(C)C)c2ncccc12
  RP-LC retention time: 902 s

## NS(=O)(=O)c1ccc(NC(=O)c2ccc(Br)cc2F)cc1
  RP-LC retention time: 729 s

## COc1ccc(C(=O)COc2ccccc2OC)cc1
  RP-LC retention time: 825 s

## CCC(Oc1ccc(=O)n(-c2ccc(F)cc2)n1)C(=O)NCc1ccc(C)o1 (centres undefined)
  RP-LC retention time: 831 s

## Cc1ccc(S(=O)(=O)N2CCCC(Cn3c(C)nc4cccnc43)C2)cc1 (centres undefined)
  RP-LC retention time: 707 s

## O=C(NCc1ccc(-n2ccnc2)cc1)c1ccccc1C(F)(F)F
  RP-LC retention time: 610 s

## CCc1nc2cc(-c3noc(C(C)NC(=O)c4ccccc4)n3)ccc2o1 (centres undefined)
  RP-LC retention time: 916 s

## O=C(Cc1ccccc1Br)NC1CCN(c2cc(-c3ccc(F)cc3)[nH]n2)C1 (centres undefined)
  RP-LC retention time: 752 s

## COCCOc1nc(N)c2[nH]c(=O)n(Cc3ccccc3)c2n1
  RP-LC retention time: 676 s

## Cc1ccc2c(=O)c3c([nH]c2c1C)CCN(CC(=O)NC1CCCCC1)C3
  RP-LC retention time: 619 s

## CN(CC1(C)CCOCC1)C(=O)CCc1c[nH]c2ccccc12
  RP-LC retention time: 772 s

## COc1ccc(NC(=O)Cn2cnc3c(sc4nc(-c5ccccc5)ccc43)c2=O)cc1
  RP-LC retention time: 967 s
